Peptide text beside a SMILES is read from it. * marks the point of attachment. Benzoyl(4-SO2NH2) = NS(=O)(=O)c1ccc(C(=O)*)cc1

In one experiment the target is wild-type hCAII protein (Homo sapiens, UniProt P00918). In words: colorimetric IC50 assay of NTMs and NTM-AAEIR peptides. In kind it is biochemical. To be noted: for Fold Enhancement (NTM IC50) / Fold Enhancement (NTM-AAEIR IC50): relative to NTM M64; for Fold Enhancement (NTM-AAEIR IC50): NTM on AAEIR. The method, then: The colorimetric assay used 300 nM of wild-type carbonic anhydrase incubated in 45 μL of 50 mM MOPS (pH 7.5), 33 mM Na2SO4, and 1 mM EDTA aliquoted into a 96-well, clear, flat-bottom plate. To each column of the plate, a 1/10 dilution series from 1 mM to 0.1 nM of each NTM was added and incubated at 25° C. for 10 minutes to reach binding equilibrium. […] The initial rate of hydrolysis was observed over the first 60 seconds. The slopes versus the concentration of NTM were put into a non-linear regression equation to determine the IC50 of the NTM to the carbonic anhydrase.

Experiment [1] concerns the target human carbonic anhydrase II (hCAII) (Homo sapiens, UniProt P00918). In words: hCAII functional assay (pNP-OAc hydrolysis) with SABA-modified peptides. The format is biochemical. The method, then:
A functional assay for hCAII enzyme was set up. Carbonic anhydrase catalyzes the hydrolysis of 4-nitrophenyl acetate (4-NPA) to nitrophenol, which can be monitored by absorbance at 400 nm. The enzymatic carbonic anhydrase assay generally includes 0.2-1.0 μM enzyme and 10-500 μM 4-NPA in 20-200 μL in assay buffer. […] Metal chelating agents (EDTA or EGTA), salt (NaCl, sulfate), detergent (Tween or Triton), and organic additives (acetonitrile, DMSO) may be employed to facilitate enzyme stability and reagent solubility. For the assay, 1 μM human carbonic anhydrase II, 50 mM MOPS (pH 7.6), 33 mM disodium sulfate, and 1 mM EDTA. To generate NTM-modified peptides, azide-derivatized peptides (via azide-PEG-amine and carbodiimide coupling to C-terminus of peptide) were conjugated to DBCO-coupled beads. […] To evaluate P1 dependence of the binding reaction, multiple P1 residues has been tested.

The target in experiment [2] is biotinylated peptides M64-P1-P2-ΔK-(PEG9)(PEG9)-K(Biotin). The experiment is described as follows: bio-layer interferometry (BLI) of engineered binders. The format is binding. The conditions noted are these: M64 peptide, 22° C. Here is the method: Bio-layer interferometry (BLI) is an optical analytical and label-free method to directly measure kinetics between two biomolecules. In this technology, one biomolecule is immobilized on a surface in the form of a small tip, this tip is then dipped in a microplate containing the second biomolecule of interest. White light is directed down the tip to the tip surface where the binding is measured as a shift in wavelength that is caused as a result of the interference between incident and reflected light. More specifically, there are two surfaces at the tip, a reference layer and the experiment layer, the latter is where the biomolecules immobilize and bind. As the distance between these two layers increases due to biomolecules binding and immobilizing, the shift between incident and reflected wavelengths increases as caused by the light waves interfering at the two layers. Therefore, the size and the number of biomolecules that bind onto the surface is proportional to the shift measured. This shift is plotted against time to give a sensogram from which kon, koff and ultimately KD can be calculated.
All binding experiments were carried out on an 8-channel Gator Prime (Gator Bio) instrument. To measure the affinity of each binder-peptide pair, biotinylated peptides were immobilized on Streptavidin coated biosensor tips (Gator Bio), which were dipped in six binder concentrations and two controls. All binding assays were performed at 22° C. in 96 well polypropylene plates (Gator Bio) and carried out in triplicates with a well volume of 200 uL. Streptavidin coated biosensors were hydrated in the baseline buffer for 10 mins before each assay. All binding experiments used biotinylated peptides with the following sequence construct, M64-P1-P2-ΔK-(PEG9)(PEG9)-K(Biotin) and all peptides were diluted in the baseline buffer. Binders having sequences set forth in SEQ ID NO: 75-SEQ ID NO: 82 were tested. The binders originated from three different metalloenzyme scaffolds and were engineered according to the methods disclosed in Examples 4-6. […] All binders were serially diluted using the baseline buffer either by 2- or 3-fold. Baseline buffer consisted of 50 mM MOPS pH 7.5, 33 mM NaSO4, 1 mM EDTA and 0.1% Tween-20. The following protocol was used for each binding assay under shaker speed of 1000 rpm, which generated the best quality binding with minimal sensor to sensor variation and baseline drift (Table 14).
Between each binding assay, if biosensors were used more than once, the following protocol was used to regenerate the biosensor for subsequent binding assays (Table 15). Regeneration buffer consisted of […] and 10 mM Glycine pH 2.0.
Analysis of binding curves. […] Binding curves were aligned to the association step and subtracted using the reference curve. Each set of processed curves were then fit locally and inspected. The residual plot, R2 and Chi2 were examined to be <0.1 nm, […] and <3 nm respectively. […] Next, the qualifying curves were filled globally and the kinetic parameters kobs, kon, koff and KD were calculated along with their errors. The errors were inspected to be less than […] of its calculated value. Finally, the theoretical shift at equilibrium from the qualifying curves were filled on a steady state plot, and the KD and Rmax (theoretical maximum binding capacity in nm) were calculated from that curve. The kinetic parameters of exemplary generated binders (having sequences set forth in SEQ ID NO: 75-SEQ ID NO: 82) with their respective targets (indicated as P1 residue of immobilized peptides) are shown in Table 16.
In general terms: In BLI a coated tip is dipped into the sample, and binding shifts an interference pattern.

Where [3] appears, read: 1 μM hCAII, 500 μM pNP-OAc, 10 minutes at 37° C., pNP release over 180 s.

For the molecule `NS(=O)(=O)c1ccc(C(=O)O)c(F)c1` [M75, 2-Fluoro-4-sulfamoylbenzoic acid], on wild-type hCAII protein, the “Fold Enhancement (NTM IC50)” value is given as 2.1 and the “Fold Enhancement (NTM-AAEIR IC50)” value was determined as 2.2.

Turning to `NS(=O)(=O)c1ccc(C(=O)O)cc1F` [M88, 3-Fluoro-4-sulfamoylbenzoic acid], at wild-type hCAII protein, the “Fold Enhancement (NTM IC50)” value was 4.3 and the “Fold Enhancement (NTM-AAEIR IC50)” value was 1.6.

On to `COc1cc(S(N)(=O)=O)ccc1C(=O)O` [M73, 2-Methoxy-4-sulfarnoylbenzoic acid], for which the “Fold Enhancement (NTM IC50)” value on wild-type hCAII protein is given as 0.0.

For `NS(=O)(=O)c1ccc(C(=O)O)c(Cl)c1` [M76, 2-Chloro-4-sulfamoylbenzoic acid], on wild-type hCAII protein, the “Fold Enhancement (NTM IC50)” value came to 2.6 and the “Fold Enhancement (NTM-AAEIR IC50)” value is given as 1.9.

Broadly, the IC50 is the point on the concentration scale where inhibition reaches its midpoint. A lower IC50 goes with greater potency in that assay. As to `C[C@H](NC(=O)[C@H](C)NC(=O)[C@H](Cc1ccccc1)NC(=O)c1ccc(S(N)(=O)=O)cc1)C(=O)N[C@@H](C)C(=O)N[C@@H](CCC(=O)O)C(N)=O` [(SAB)FAAAE] ({Benzoyl(4-SO2NH2)}-FAAAE-NH2), the IC50 in experiment [1] (setting [3]) and in experiment [1] (SABA-P1-P2 groups) was 45 nM each time.

Consider `NS(=O)(=O)c1ccc(C(=O)O)cn1` [M65, 6-Sulfamoylpyridine-3-carboxylic acid], for which, at wild-type hCAII protein, the “Fold Enhancement (NTM IC50)” value stood at 2.2 and the “Fold Enhancement (NTM-AAEIR IC50)” value was determined as 0.3.

Turning to `C[C@H](NC(=O)c1ccc(S(N)(=O)=O)cc1)C(=O)N[C@@H](Cc1ccccc1)C(=O)N[C@@H](C)C(=O)N[C@@H](C)C(=O)N[C@@H](CCC(=O)O)C(N)=O` [(SAB)AFAAE] ({Benzoyl(4-SO2NH2)}-AFAAE-NH2), the IC50 in experiment [1] (setting [3]) and in experiment [1] (SABA-P1-P2 groups) was 183 nM each time.

In experiment [1] (SABA-P1-P2 groups), `C[C@H](NC(=O)c1ccc(S(N)(=O)=O)cc1)C(=O)N[C@@H](C)C(=O)N[C@@H](C)C(=O)N[C@@H](C)C(=O)N[C@@H](CCC(=O)O)C(N)=O` [(SAB)AAAAE] ({Benzoyl(4-SO2NH2)}-AAAAE-NH2) gave an IC50 of 48 nM.

For `NS(=O)(=O)c1ccc(C(=O)O)nc1` [M66], the IC50 at wild-type hCAII protein (free NTM, 300 nM wild-type carbonic anhydrase, 1 mM pNPA, 25° C.) is 992 nM. At wild-type hCAII protein, the “Fold Enhancement (NTM IC50)” value is 0.5.

In the case of `NS(=O)(=O)c1ccc(C(=O)O)c([N+](=O)[O-])c1` [M67, 2Nitro-4-sulfamoylbenzoic acid], on wild-type hCAII protein, the “Fold Enhancement (NTM IC50)” value is recorded as 3.8 and the “Fold Enhancement (NTM-AAEIR IC50)” value was determined as 2.0.

In the case of `Nc1cc(S(N)(=O)=O)ccc1C(=O)O` [2-NH2, 2-Amino-4-sulfamoylbenzoic acid], the “Fold Enhancement (NTM IC50)” value at wild-type hCAII protein is 0.3.

Take `Cc1cc(S(N)(=O)=O)ccc1C(=O)O` [M74, 2-methyl-4 sulfamoylbenzoic acid]: on wild-type hCAII protein, the “Fold Enhancement (NTM IC50)” value was determined as 0.2.

B1: 75 (protein)
chain: EWGYASHNGPDHWHELFPNAKGENQSPIELHTKDIRHDPSLQPWSVSYDGGSAKTILNNGKTLGVVFDDTYDRSMLRGGPLPGPYRLREFHLHWGSSDDHGSEHTVDGVKYAAELHLLHWNPKYNTFKEALKQRDGLAVIGIFLKIGHENGEFQIFLDALDKIKTKGKEAPFTKFDPSSLFPASRDYWTYQGSMTIPPLMEAVVWLLLKEPMTVSSDQMAKLRSLLSSAENEPPVPLVSNWRPPQPINNRVVRASFK
modifications: Synthetic binder, S279_0004
The Kd is a measure of binding affinity in units of concentration. A lower Kd goes with a tighter complex. In general, koff refers to the first-order rate constant of dissociation. The kon is the second-order rate constant of association. On to B1, for which, in experiment [2] (P1 = T), the Kd was found to be 488 nM, the “koff” value is 0.0111 s⁻¹ and the “kon” value stood at 23300 M⁻¹ s⁻¹. In addition, in experiment [2] (P1 = V), the dissociation constant Kd worked out at 20 nM, the “koff” value was determined as 0.000473 s⁻¹ and the “kon” value is 23700 M⁻¹ s⁻¹.

Values taken from patent publication US12467928B2, “N-terminal modifier agents and binders for treating and analyzing peptides” (Encodia, Inc., priority 2023, dated 2025).
